Test results published in patent publication US20210253642A1, “CALPAIN MODULATORS AND THERAPEUTIC USES THEREOF BACKGROUND” (Blade Therapeutics, Inc., priority 2018, published 2021).
pIC50: −log10 of the molar value.

Key:
Format in all cases: biochemical
Human Calpain 1/NS1 = molecular target: T1, Human Calpain 1/NS1 (Homo sapiens, UniProt P07384); assay: Calpain continuous fluorescence (FRET) inhibition assay; conditions: Column A; SensoLyte 520 FRET substrate, pH 7.5, 25C
T1 sequence (P07384 1-714): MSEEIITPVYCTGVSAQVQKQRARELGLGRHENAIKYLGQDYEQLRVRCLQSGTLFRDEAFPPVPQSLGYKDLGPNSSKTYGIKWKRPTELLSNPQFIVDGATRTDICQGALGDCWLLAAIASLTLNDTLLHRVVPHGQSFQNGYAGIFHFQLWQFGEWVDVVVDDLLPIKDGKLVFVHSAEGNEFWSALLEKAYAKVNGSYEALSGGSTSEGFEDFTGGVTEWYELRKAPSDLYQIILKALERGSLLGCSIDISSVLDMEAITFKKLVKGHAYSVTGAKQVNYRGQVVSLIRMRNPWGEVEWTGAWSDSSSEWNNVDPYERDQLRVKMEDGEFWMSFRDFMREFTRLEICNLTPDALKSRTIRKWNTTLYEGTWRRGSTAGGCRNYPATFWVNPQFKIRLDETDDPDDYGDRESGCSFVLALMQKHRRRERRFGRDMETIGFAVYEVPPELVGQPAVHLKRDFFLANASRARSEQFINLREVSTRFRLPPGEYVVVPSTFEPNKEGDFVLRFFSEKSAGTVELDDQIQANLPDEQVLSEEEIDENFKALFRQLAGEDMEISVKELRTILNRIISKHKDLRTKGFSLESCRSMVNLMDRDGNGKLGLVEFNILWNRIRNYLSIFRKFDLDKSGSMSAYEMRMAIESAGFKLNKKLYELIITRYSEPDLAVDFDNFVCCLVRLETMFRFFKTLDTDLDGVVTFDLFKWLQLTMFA
T1 sequence (P04632 1-268 partner): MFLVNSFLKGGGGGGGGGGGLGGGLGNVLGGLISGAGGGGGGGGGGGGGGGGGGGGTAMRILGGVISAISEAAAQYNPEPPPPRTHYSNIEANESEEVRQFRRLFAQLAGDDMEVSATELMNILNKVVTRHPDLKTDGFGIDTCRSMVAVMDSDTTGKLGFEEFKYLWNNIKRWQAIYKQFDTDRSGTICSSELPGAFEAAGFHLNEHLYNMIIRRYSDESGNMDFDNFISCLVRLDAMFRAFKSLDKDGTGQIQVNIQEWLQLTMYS
Experimental: (§1) Calpain 1, 2, and 9 activity and inhibition thereof was assessed by means of a continuous fluorescence assay. The SensoLyte 520 Calpain substrate (Anaspec Inc.) was optimized for detecting calpain activity. This substrate contains an internally quenched 5-FAM/QXLTM 520 FRET pair. Calpains 1, 2, and 9 cleave the FRET substrate into two separate fragments resulting in an increase of 5-FAM fluorescence that is proportional to calpain activity
(§2) Assays were typically setup in black 384-well plates using automated liquid handling as follows. Calpain assay base buffer typically contains 50 mM Tris, pH 7.5, 100 mM NaCl and 1 mM DTT. Inhibitors were serially diluted in DMSO and used to setup 2× mixtures with calpains in the aforementioned buffer. After incubation at ambient temperature (25C), the reaction was initiated by adding a 2× mix of the fluorescent peptide substrate and CaCl2) (required for in-situ calpain activation) in the same buffer. Reaction progress curve data were typically collected for 10 min using excitation/emission wavelengths of 490 nm/520 nm on SpectraMax i3x or the FLIPR-Tetra plate readers (Molecular Devices Inc.). Reaction rates were calculated from progress curve slopes typically over 1-5 min. Dose response curves (rate vs. log inhibitor concentration) were typically fit to a 4-parameter logistic function to extract IC50 values.

Human Calpain 2/NS1 = molecular target: T2, Human Calpain 2/NS1 (Homo sapiens, UniProt P17655); assay: as above; conditions: Column B; SensoLyte 520 FRET substrate, pH 7.5, 25C
T2 sequence (P17655 1-700): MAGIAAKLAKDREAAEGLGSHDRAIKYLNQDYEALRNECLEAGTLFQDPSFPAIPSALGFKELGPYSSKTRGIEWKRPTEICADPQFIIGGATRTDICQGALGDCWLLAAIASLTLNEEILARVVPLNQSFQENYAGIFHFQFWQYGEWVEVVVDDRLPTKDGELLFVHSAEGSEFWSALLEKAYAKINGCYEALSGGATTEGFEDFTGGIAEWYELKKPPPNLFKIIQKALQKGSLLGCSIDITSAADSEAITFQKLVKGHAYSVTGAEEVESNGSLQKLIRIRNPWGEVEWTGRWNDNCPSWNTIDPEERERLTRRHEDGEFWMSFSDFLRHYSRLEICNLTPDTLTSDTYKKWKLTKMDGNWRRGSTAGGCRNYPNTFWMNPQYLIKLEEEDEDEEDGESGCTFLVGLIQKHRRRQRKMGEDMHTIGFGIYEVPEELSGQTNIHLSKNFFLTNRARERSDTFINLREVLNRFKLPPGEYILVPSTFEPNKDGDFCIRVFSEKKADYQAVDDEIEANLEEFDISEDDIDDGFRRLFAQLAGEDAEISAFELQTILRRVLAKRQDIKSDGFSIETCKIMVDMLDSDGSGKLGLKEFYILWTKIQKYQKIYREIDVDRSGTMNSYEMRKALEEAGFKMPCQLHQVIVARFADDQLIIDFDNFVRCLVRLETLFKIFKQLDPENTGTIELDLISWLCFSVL
T2 sequence (P04632 1-268 partner): T1 sequence (P04632 1-268 partner)
Experimental: as §1, §2

Human Calpain 9/NS1 = molecular target: T3, Human Calpain 9/NS1 (Homo sapiens, UniProt O14815); assay: as above; conditions: Column C; SensoLyte 520 FRET substrate, pH 7.5, 25C
T3 sequence (O14815 1-690): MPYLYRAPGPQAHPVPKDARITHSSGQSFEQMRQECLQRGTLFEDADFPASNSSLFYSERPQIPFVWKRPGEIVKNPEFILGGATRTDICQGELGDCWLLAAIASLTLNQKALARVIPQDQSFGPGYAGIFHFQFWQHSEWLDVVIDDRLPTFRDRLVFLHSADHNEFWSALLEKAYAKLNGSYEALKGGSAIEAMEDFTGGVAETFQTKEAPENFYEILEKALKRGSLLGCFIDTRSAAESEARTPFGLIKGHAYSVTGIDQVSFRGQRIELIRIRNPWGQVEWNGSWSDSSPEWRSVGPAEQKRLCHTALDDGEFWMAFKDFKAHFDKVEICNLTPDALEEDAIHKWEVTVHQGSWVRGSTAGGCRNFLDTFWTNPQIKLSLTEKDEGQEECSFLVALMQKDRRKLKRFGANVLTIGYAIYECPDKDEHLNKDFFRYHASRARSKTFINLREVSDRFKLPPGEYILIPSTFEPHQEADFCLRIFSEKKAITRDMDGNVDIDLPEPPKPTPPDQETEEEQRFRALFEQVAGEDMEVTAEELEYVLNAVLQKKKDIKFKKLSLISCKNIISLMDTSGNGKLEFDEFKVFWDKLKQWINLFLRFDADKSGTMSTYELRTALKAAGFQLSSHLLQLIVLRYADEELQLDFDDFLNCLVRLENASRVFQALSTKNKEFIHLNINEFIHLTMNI
T3 sequence (P04632 1-268 partner): T1 sequence (P04632 1-268 partner)
Experimental: as §1, §2

Human Cathepsin B = molecular target: T4, Human Cathepsin B (Homo sapiens, UniProt P07858); assay: Cathepsin continuous fluorescence inhibition assay; conditions: Column D; enzyme 25 nM, substrate 1 uM, pH 5.0, 30 minutes pre-incubation with inhibitor
T4 construct: purchased
Experimental: (§3) Cathepsin activity and inhibition thereof was assessed by means of a continuous fluorescence assay. All assays were run in 384 well format and utilized peptide substrates that liberate fluorescence upon protease catalyzed cleavage. FLIPR plate readers (Molecular Devices Inc.) were used to monitor reactions and extract initial rates which were then fit (four parameter logistic function) to obtain IC50 values. All enzymes are human. All enzymes and reagents were obtained commercially and are summarized in Tables 1 and 2 below along with assay conditions.

Human Cathepsin K = molecular target: T5, Human Cathepsin K (Homo sapiens, UniProt P43235); assay: Cathepsin continuous fluorescence inhibition assay; conditions: Column E; enzyme 10 nM, substrate 1 uM, pH 5.5, 30 minutes pre-incubation with inhibitor
T5 construct: purchased
T5 sequence (P43235 115-329): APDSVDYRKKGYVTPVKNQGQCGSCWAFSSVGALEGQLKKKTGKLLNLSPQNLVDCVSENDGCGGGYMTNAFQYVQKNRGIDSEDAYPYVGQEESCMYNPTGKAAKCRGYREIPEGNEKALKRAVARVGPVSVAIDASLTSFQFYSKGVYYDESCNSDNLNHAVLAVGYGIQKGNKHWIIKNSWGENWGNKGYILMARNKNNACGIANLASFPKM
Experimental: as §3

Human Cathepsin L = molecular target: T6, Human Cathepsin L (Homo sapiens, UniProt P07711); assay: Cathepsin continuous fluorescence inhibition assay; conditions: Column G; enzyme 0.025 nM, substrate 1 uM, pH 6.0, 30 minutes pre-incubation with inhibitor
T6 construct: purchased
T6 sequence (P07711 114-333): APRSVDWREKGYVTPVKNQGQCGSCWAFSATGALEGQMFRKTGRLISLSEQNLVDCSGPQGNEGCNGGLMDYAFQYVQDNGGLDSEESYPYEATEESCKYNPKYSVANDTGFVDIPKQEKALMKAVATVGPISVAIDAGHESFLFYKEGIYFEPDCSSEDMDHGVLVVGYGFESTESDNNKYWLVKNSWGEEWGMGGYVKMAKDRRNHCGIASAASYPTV
Experimental: as §3

Human Cathepsin S = molecular target: T7, Human Cathepsin S (Homo sapiens, UniProt P25774); assay: Cathepsin continuous fluorescence inhibition assay; conditions: Column F; enzyme 6 nM, substrate 1 uM, pH 4.5, 30 minutes pre-incubation with inhibitor
T7 construct: purchased
T7 sequence (P25774 115-331): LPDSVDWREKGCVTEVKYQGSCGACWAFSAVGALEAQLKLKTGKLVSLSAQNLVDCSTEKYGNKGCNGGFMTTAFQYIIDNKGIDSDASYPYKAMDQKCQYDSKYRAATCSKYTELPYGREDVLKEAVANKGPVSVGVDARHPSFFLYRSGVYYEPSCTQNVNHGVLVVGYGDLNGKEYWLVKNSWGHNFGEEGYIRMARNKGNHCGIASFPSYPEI
Experimental: as §3

| pIC50 (Human Calpain 1/NS1) | pIC50 (Human Calpain 2/NS1) | pIC50 (Human Calpain 9/NS1) | pIC50 (Human Cathepsin B) | pIC50 (Human Cathepsin K) | pIC50 (Human Cathepsin L) | pIC50 (Human Cathepsin S) | Structure (SMILES) |
| --- | --- | --- | --- | --- | --- | --- | --- |
| < 5.00 | < 5.00 | < 5.00 | > 5.52 | > 5.52 | > 5.52 | > 5.52 | CC(C)[C@@H]1NC(=O)/C=C/[C@@H](NC(=O)CNC(=O)[C@H](Cc2ccc(O)cc2)NC(=O)OC(C)(C)C)COC(=O)[C@H](Cc2ccc(O)cc2)NC1=O [Compound 8, tert-butyl ((s)-1-((2-(((3S,6S,11R,E)-3-(4-hydroxybenzyl)-6-isopropyl-2,5,8-trioxo-1-oxa-4,7-diazacyclododec-9-en-11-yl)amino)-2-oxoethyl)amino)-3-(4-hydroxyphenyl)-1-oxopropan-2-yl)carbamate] |
| < 5.00 | < 5.00 | < 5.00 | > 5.52 | > 5.52 | > 5.52 | > 5.52 | CC(C)[C@@H]1NC(=O)/C=C/[C@@H](NC(=O)OC(C)(C)C)COC(=O)[C@H](Cc2ccc(O)cc2)NC1=O [Compound 1, Tert-butyl ((3S,6S,11R,E)-3-(4-Hydroxybenzyl)-6-isopropyl-2,5,8-trioxo-1-oxa-4,7-Diazacyclododec-9-en-11-yl)carbamate] |
| < 5.00 | < 5.00 | < 5.00 | 5.00 to 5.52 | > 5.52 | > 5.52 | > 5.52 | CC(C)[C@@H]1NC(=O)/C=C/[C@@H](NC(=O)[C@H](Cc2ccccc2)NC(=O)OC(C)(C)C)COC(=O)[C@H](Cc2ccc(O)cc2)NC1=O [Compound 14, tert-butyl ((s)-1-(((3S,6S,11R,E)-3-(4-hydroxybenzyl)-6-isopropyl-2,5,8-trioxo-1-oxa-4,7-diazacyclododec-9-en-11-yl)amino)-1-oxo-3-phenylpropan-2-yl)carbamate] |
| > 5.52 | > 5.52 | < 5.00 | > 5.52 | > 5.52 | > 5.52 | > 5.52 | CCCCCC/C=C\CC(=O)N[C@@H](Cc1ccc(O)cc1)C(=O)N[C@H](C(=O)N[C@@H]1/C=C/C(=O)N[C@@H](C(C)C)C(=O)N[C@@H](Cc2ccc(O)cc2)C(=O)OC1)C(C)C [Compound 18, (Z)—N—((S)-1-(((S)-1-(((3S,6S,11R,E)-3-(4-hydroxybenzyl)-6-isopropyl-2,5,8-trioxo-1-oxa-4,7-diazacyclododec-9-en-11-yl)amino)-3-methyl-1-oxobutan-2-yl)amino)-3-(4-hydroxyphenyl)-1-oxopropan-2-yl)dec-3-enamide] |
| 5.00 to 5.52 | > 5.52 | < 5.00 | > 5.52 | > 5.52 | > 5.52 | > 5.52 | CC(C)[C@@H]1NC(=O)/C=C/[C@@H](NC(=O)[C@@H](NC(=O)OC(C)(C)C)C(C)C)COC(=O)[C@H](Cc2ccc(O)cc2)NC1=O [Compound 2, Tert-butyl ((S)-1-(((3S,6S,11R,E)-3-(4-hydroxybenzyl)-6-isopropyl-2,5,8-trioxo-1-oxa-4,7-diazacyclododec-9-en-11-yl)amino)-3-methyl-1-oxobutan-2-yl)carbamate] |
| > 5.52 | > 5.52 | < 5.00 | > 5.52 | > 5.52 | > 5.52 | > 5.52 | CC(C)[C@@H]1NC(=O)/C=C/[C@@H](NC(=O)[C@@H](NC(=O)[C@H](Cc2ccccc2)NC(=O)OC(C)(C)C)C(C)C)COC(=O)[C@H](Cc2ccc(O)cc2)NC1=O [Compound 6] |
| > 5.52 | > 5.52 | < 5.00 | > 5.52 | > 5.52 | > 5.52 | > 5.52 | CC(C)[C@@H]1NC(=O)/C=C/[C@@H](NC(=O)[C@@H](NC(=O)[C@H](Cc2ccc(O)cc2)NC(=O)OC(C)(C)C)C(C)C)COC(=O)[C@H](Cc2ccc(O)cc2)NC1=O [Compound 3, Tert-butyl ((S)-1-(((S)-1-(((3S,6S,11R,E)-3-(4-Hydroxybenzyl)-6-isopropyl-2,5,8-trioxo-1-oxa-4,7-diazacyclododec-9-en-11-yl)amino)-3-methyl-1-oxobutan-2-yl)amino)-3-(4-hydroxyphenyl)-1-oxopropan-2-yl)carbamate] |
